From the supplement of paper PMC10307832

Legend:
Experiment in all cases: relative viability (nuclei count vs DMSO), 5 days (fraction); higher = more cells survive
[1] = compound: CC1=C(C(=NN1)C)CC2=C(C3=C(S2)N(C(=O)N(C3=O)C)CC(C)C)C(=O)N4C[C@@H](CO4)O + C[C@@H](Oc1cc(-c2cnn(C3CCNCC3)c2)cnc1N)c1c(Cl)ccc(F)c1Cl [Crizotinib] (partner 1 µM)
In short: (§1)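 Relative viability equals treated-well nuclei counts divided by vehicle-well nuclei counts. Counts came from 4× images of lung cancer cell lines grown in 1536-well plates for 5 days after pin-tool dosing on the day after seeding. Dosing used one drug alone or a fixed anchor-drug dose plus five library-drug doses (not always all listed) in √10 steps, and values are medians of duplicate plates.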

[2] = compound: Cc1ccccc1C(C(=O)NC1CCCCC1)N(C(=O)Cn1ccnc1C)c1cccc(F)c1 [IDH-C35] + Nc1ncn([C@H]2C[C@H](O)[C@@H](CO)O2)c(=O)n1 [Decitabine] (partner 2 µM)
In short: as §1

[3] = compound: CC1=C(C(=NN1)C)CC2=C(C3=C(S2)N(C(=O)N(C3=O)C)CC(C)C)C(=O)N4C[C@@H](CO4)O + C[C@]1(O)C[C@@H](c2nc(-c3ccc4ccc(-c5ccccc5)nc4c3)c3c(N)nccn32)C1 [Linsitinib] (partner 1 µM)
In short: as §1

[4] = compound: Cc1ccccc1C(C(=O)NC1CCCCC1)N(C(=O)Cn1ccnc1C)c1cccc(F)c1 [IDH-C35] + CC(=O)c1c(C)c2cnc(Nc3ccc(N4CCNCC4)cn3)nc2n(C2CCCC2)c1=O [Palbociclib] (partner 0.5 µM)
In short: as §1

| Cell Line | relative viability ([1]; first compound 0.0025 µM) | relative viability ([1]; first compound 0.007906 µM) | relative viability ([1]; first compound 0.025 µM) | relative viability ([1]; first compound 0.07906 µM) | relative viability ([1]; first compound 0.25 µM) | relative viability ([2]; first compound 0.08 µM) | relative viability ([2]; first compound 0.253 µM) | relative viability ([2]; first compound 0.8 µM) | relative viability ([2]; first compound 2.53 µM) | relative viability ([2]; first compound 8 µM) | relative viability ([3]; first compound 0.0025 µM) | relative viability ([3]; first compound 0.007906 µM) | relative viability ([3]; first compound 0.025 µM) | relative viability ([3]; first compound 0.07906 µM) | relative viability ([3]; first compound 0.25 µM) | relative viability ([4]; first compound 0.08 µM) | relative viability ([4]; first compound 0.253 µM) | relative viability ([4]; first compound 0.8 µM) | relative viability ([4]; first compound 2.53 µM) | relative viability ([4]; first compound 8 µM) |
| --- | --- | --- | --- | --- | --- | --- | --- | --- | --- | --- | --- | --- | --- | --- | --- | --- | --- | --- | --- | --- |
| HCC-78 | 0.444 | 0.316 | 0.342 | 0.371 | 0.322 | 0.701 | 0.579 | 0.703 | 0.605 | 0.707 | 0.483 | 0.548 | 0.587 | 0.505 | 0.377 | 0.462 | 0.437 | 0.439 | 0.494 | 0.553 |
| HCC-366 | 0.661 | 1.13 | 0.622 | 0.641 | 0.825 | 0.359 | 0.344 | 0.403 | 0.288 | 0.324 | 0.593 | 0.771 | 0.59 | 0.62 | 0.712 | 0.374 | 0.399 | 0.381 | 0.38 | 0.321 |
| HCC-827 | 0.96 | 0.965 | 0.924 | 0.929 | 1 | 0.309 | 0.318 | 0.282 | 0.317 | 0.296 | 1.01 | 1.01 | 0.96 | 0.949 | 0.963 | 0.475 | 0.483 | 0.397 | 0.562 | 0.472 |
| HOP-62 | 0.807 | 1.11 | 1 | 0.819 | 1.12 | 0.175 | 0.237 | 0.229 | 0.206 | 0.206 | 1.01 | 0.967 | 0.889 | 1 | 0.817 | 0.377 | 0.435 | 0.426 | 0.419 | 0.394 |
| IA-LM | 0.924 | 0.743 | 0.838 | 0.885 | 1.03 |  |  |  |  |  | 0.686 | 0.509 | 0.552 | 0.525 | 0.94 |  |  |  |  |  |
| LC-2-ad | 0.486 | 0.451 | 0.411 | 0.454 | 0.638 | 0.73 | 0.839 | 0.847 | 0.764 | 0.782 | 0.848 | 0.928 | 0.9 | 0.869 | 0.843 | 0.527 | 0.476 | 0.531 | 0.49 | 0.494 |
| LCLC-97TM1 | 0.448 | 0.436 | 0.371 | 0.361 | 0.692 | 0.219 | 0.247 | 0.255 |  | 0.238 | 0.183 | 0.206 | 0.205 | 0.163 | 0.159 | 0.192 | 0.22 | 0.213 |  | 0.27 |
| LCLC-103H | 0.936 | 1.03 | 1.02 | 0.991 | 1.17 | 0.81 | 0.676 | 0.726 | 0.744 | 0.834 | 1.07 | 1.15 | 1.18 | 0.835 | 1.12 | 0.498 | 0.483 | 0.532 | 0.518 | 0.484 |
| NCI-H522 |  |  |  |  |  | 0.604 | 0.795 | 0.72 | 0.652 | 0.716 |  |  |  |  |  | 1.07 | 1.07 | 1.01 | 0.944 | 0.99 |
| NCI-H596 | 1.02 | 1.06 | 0.954 | 1.04 | 1.16 | 1.06 | 1.04 | 0.933 | 0.853 | 1.02 | 1.02 | 1.14 | 1.08 | 1.13 | 1.13 |  |  |  |  |  |
| NCI-H1299 | 0.961 | 0.993 | 0.923 | 0.941 | 0.948 |  |  |  |  |  | 1.03 | 0.875 | 0.926 | 1 | 1.06 |  |  |  |  |  |
| NCI-H1395 |  |  |  |  |  | 0.695 | 0.649 | 0.676 | 0.754 | 0.653 | 0.965 | 0.902 | 0.917 | 0.988 | 0.89 | 0.626 | 0.605 | 0.612 | 0.601 | 0.598 |
| NCI-H1563 | 0.91 | 0.92 | 0.87 | 0.889 | 0.892 |  |  |  |  |  | 1.15 | 1.24 | 1.26 | 1.23 | 1.23 |  |  |  |  |  |
| NCI-H1648 |  |  |  |  |  |  | 0.598 | 0.502 | 0.51 | 0.441 |  |  |  |  |  |  | 0.271 | 0.322 | 0.246 | 0.285 |
| NCI-H1650 | 1.05 | 1.08 | 0.973 | 1.04 | 1.06 | 0.417 | 0.358 | 0.408 | 0.465 | 0.453 |  |  |  |  |  | 0.381 | 0.329 | 0.355 | 0.422 | 0.4 |
| NCI-H1703 | 0.84 | 0.828 | 0.898 | 0.688 | 0.777 |  |  |  |  |  | 0.691 | 0.253 | 0.638 | 0.448 | 0.804 |  |  |  |  |  |
| NCI-H1793 |  |  |  |  |  | 0.519 | 0.454 | 0.535 | 0.586 | 0.476 | 0.726 | 0.868 | 0.834 | 0.66 | 0.926 | 0.273 | 0.303 | 0.356 | 0.327 | 0.322 |
| NCI-H2170 | 1.19 | 1.37 | 1.24 | 1.13 | 1.26 | 0.428 | 0.451 | 0.482 | 0.507 | 0.457 |  |  |  |  |  | 0.382 | 0.377 | 0.425 | 0.385 | 0.379 |
| NCI-H2228 | 0.421 | 0.523 | 0.473 | 0.505 | 0.469 |  |  |  |  |  | 0.912 | 1.07 | 0.672 | 0.764 | 0.674 | 0.795 | 0.728 | 0.738 | 0.723 | 0.728 |
| NCI-H2342 |  |  |  |  |  | 0.719 | 0.745 | 0.757 | 0.714 | 0.744 |  |  |  |  |  | 0.578 | 0.535 | 0.475 | 0.526 | 0.662 |
| SW 900 |  |  |  |  |  | 0.467 | 0.396 |  | 0.472 | 0.438 |  |  |  |  |  | 0.487 | 0.568 |  | 0.522 | 0.506 |
